In US11612606B2, “8-aminoisoquinoline compounds and uses thereof” (priority 2018, dated 2023) one finds Ki data, which are given here for 30 compounds.

Structures can show the parent of a compound that is named as a salt. Some results are limits rather than exact numbers.

HPK full length, T165E S171E, sequence (Q92918 whole entry T165E/S171E, looked up): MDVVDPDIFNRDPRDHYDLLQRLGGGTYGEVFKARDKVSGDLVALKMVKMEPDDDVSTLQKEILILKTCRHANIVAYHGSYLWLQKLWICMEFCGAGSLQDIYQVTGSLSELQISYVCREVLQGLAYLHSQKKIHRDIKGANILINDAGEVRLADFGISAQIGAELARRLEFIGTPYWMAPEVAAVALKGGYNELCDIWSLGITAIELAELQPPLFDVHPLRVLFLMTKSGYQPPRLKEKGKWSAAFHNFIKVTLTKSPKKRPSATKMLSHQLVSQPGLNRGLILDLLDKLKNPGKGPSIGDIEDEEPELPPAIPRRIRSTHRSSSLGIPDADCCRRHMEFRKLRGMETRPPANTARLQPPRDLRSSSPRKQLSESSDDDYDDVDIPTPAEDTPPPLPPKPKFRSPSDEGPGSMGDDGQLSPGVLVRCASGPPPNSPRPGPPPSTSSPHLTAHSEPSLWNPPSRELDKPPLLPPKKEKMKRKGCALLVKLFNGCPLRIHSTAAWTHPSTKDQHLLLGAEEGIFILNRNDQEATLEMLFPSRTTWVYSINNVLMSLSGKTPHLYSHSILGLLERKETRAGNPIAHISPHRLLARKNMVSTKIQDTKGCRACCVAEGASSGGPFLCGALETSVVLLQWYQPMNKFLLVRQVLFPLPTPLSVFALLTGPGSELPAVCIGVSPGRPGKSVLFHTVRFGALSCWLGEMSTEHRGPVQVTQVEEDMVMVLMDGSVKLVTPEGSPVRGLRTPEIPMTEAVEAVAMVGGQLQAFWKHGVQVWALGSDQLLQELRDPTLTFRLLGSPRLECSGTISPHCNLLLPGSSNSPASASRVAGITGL

The first experiment addresses HPK full length, T165E S171E (Homo sapiens (Human), UniProt Q92918, S171E/T165E). The experiment is described as follows: HPK1-FL HTRF enzymatic assay ("HTRF"). The experiment is classed as biochemical. As to conditions: ATP 1 mM, read-out: HPK1 Ki. The procedure: Assay Principle: HPK-FL enzyme phosphorylates Biotin-SLP-76 substrate in the presence of ATP at […] and varying concentrations of test compound. Product is detected by FRET using Eu-anti-pSLP76 Ab and SA-XL665. Also see www.cisbio.com/HTRF for additional HTRF technology information.
Instrumentation: Echo555 compound dispenser; Agilent Bravo; Perkin Elmer Envision.
To a 384 well Proxiplate with 80 nL compound or DMSO spotted on was added 4 μl/well kinase mix. The mixture was preincubated for 30 minutes and then 4 μl/well substrate mix was added. The solution was incubated for 60 min and then 4 μl/well detection mix was added. The solution was incubated for another 60 min.
Exemplary compounds were tested in the HTRF binding assays.
On the technique in general: In TR-FRET formats the signal depends on donor and acceptor labels being close together.
Turning to `Cc1c(-c2cc3cc(NC(=O)OCC4(F)CN(C)C4)ncc3c(N)c2F)cnc2c1NCCO2` [Compound 450, (3-Fluoro-1-methyl-azetidin-3-yl)methyl N-[8-amino-7-fluoro-6-(8-methyl-2,3-dihydro-1H-pyrido[2,3-b][1,4]oxazin-7-yl)-3-isoquinolyl]carbamate], the Ki was determined as 0.13 nM. On to `Cc1c(-c2cc3cc(NC(=O)O[C@H]4COC[C@@H]4C)ncc3c(N)c2F)cnc2c1NC[C@H](F)O2` (single isomer, unassigned) [Compound 567a], for which the inhibitory constant (Ki) is 0.33 nM. The same measure, in the same setting: the value for `Cc1c(-c2cc3cc(NC(=O)O[C@@H]4CC[C@@H]4O)ncc3c(N)c2F)cnc2c1NCCO2` [Compound 542b, (1R,2S)-2-Hydroxycyclobutyl (8-amino-7-fluoro-6-(8-methyl-2,3-dihydro-1H-pyrido[2,3-b][1,4]oxazin-7-yl)isoquinolin-3-yl)carbamate] was 0.078 nM; that for `Cc1c(-c2cc3cc(NC(=O)O[C@H]4C[C@@H](C(=O)N5CCC5)C4)ncc3c(N)c2F)cnc2c1NCCO2` [Compound 517a, (1s,3s)-3-(Azetidine-1-carbonyl)cyclobutyl (8-amino-7-fluoro-6-(8-methyl-2,3-dihydro-1H-pyrido[2,3-b][1,4]oxazin-7-yl)isoquinolin-3-yl)carbamate] was less than 0.013 nM; that for `Cc1c(-c2cc3cc(NC(=O)O[C@@H]4CCO[C@H]4C)ncc3c(N)c2F)cnc2c1NCCO2` (racemic) [Compound 510a, (2S,3R)-2-methyltetrahydrofuran-3-yl (8-amino-7-fluoro-6-(8-methyl-2,3-dihydro-1H-pyrido[2,3-b][1,4]oxazin-7-yl)isoquinolin-3-yl)carbamate] was 0.395 nM.

`Cc1c(-c2cc3cc(NC(=O)O[C@@H]4CC[C@H]4C#N)ncc3c(N)c2F)cnc2c1NCCO2` [Compound 535b, (1R,2S)-2-Cyanocyclobutyl (8-amino-7-fluoro-6-(8-methyl-2,3-dihydro-1H-pyrido[2,3-b][1,4]oxazin-7-yl)isoquinolin-3-yl)carbamate]: the Ki is 0.029 nM. Same read-out and setting: the value for `Cc1c(-c2cc3cc(NC(=O)N[C@H]4C[C@H]4C)ncc3c(N)c2F)cnc2c1NCCO2` (single isomer, unassigned) [Compound 736a] was less than 0.013 nM; that for `CNC(=O)[C@H]1C[C@@H](OC(=O)Nc2cc3cc(-c4cnc5c(c4C)NCCO5)c(F)c(N)c3cn2)C1` [Compound 520a, (1s,3s)-3-(Methylcarbamoyl)cyclobutyl (8-amino-7-fluoro-6-(8-methyl-2,3-dihydro-1H-pyrido[2,3-b][1,4]oxazin-7-yl)isoquinolin-3-yl)carbamate hydrochloride] was less than 0.013 nM. In the case of `Cc1c(-c2cc3cc(NC(=O)O[C@H]4CCC(=O)N(C)C4)ncc3c(N)c2F)cnc2c1NCCO2` [Compound 409a, (S)-1-Methyl-6-oxopiperidin-3-yl (8-amino-7-fluoro-6-(8-methyl-2,3-dihydro-1H-pyrido[2,3-b][1,4]oxazin-7-yl)isoquinolin-3-yl)carbamate], the Ki worked out at 0.053 nM.

`CCNC(=O)Nc1cc2cc(-c3cnc4c(c3C)NCCO4)c(F)c(N)c2cn1` [Compound 720, 1-(8-Amino-7-fluoro-6-(8-methyl-2,3-dihydro-1H-pyrido[2,3-b][1,4]oxazin-7-yl)isoquinolin-3-yl)-3-ethylurea]: the Ki was less than 0.013 nM. As to `Cc1c(-c2cc3cc(NC(=O)NC4CC5(C4)CN(CC(F)(F)F)C5)ncc3c(N)c2F)cnc2c1NCCO2` [Compound 708, 1-(8-Amino-7-fluoro-6-(8-methyl-2,3-dihydro-1H-pyrido[2,3-b][1,4]oxazin-7-yl)isoquinolin-3-yl)-3-(2-(2,2,2-trifluoroethyl)-2-azaspiro[3.3]heptan-6-yl)urea], the Ki is less than 0.013 nM.

On to `Cc1c(-c2cc3cc(NC(=O)O[C@H]4[C@@H]5CN(C)C[C@@H]54)ncc3c(N)c2F)cnc2c1NCCO2` [Compound 432a, (1R,5S,6s)-3-Methyl-3-azabicyclo[3.1.0]hexan-6-yl (8-amino-7-fluoro-6-(8-methyl-2,3-dihydro-1H-pyrido[2,3-b][1,4]oxazin-7-yl)isoquinolin-3-yl)carbamate], for which the Ki is less than 0.013 nM. On the same count and under the same terms, the value for `Cc1c(-c2cc3cc(NC(=O)NC(C)C)ncc3c(N)c2F)cnc2c1NCCO2` [Compound 746, 1-(8-Amino-7-fluoro-6-(8-methyl-2,3-dihydro-1H-pyrido[2,3-b][1,4]oxazin-7-yl)isoquinolin-3-yl)-3-isopropylurea] was less than 0.013 nM; that for `Cc1c(-c2cc3cc(NC(=O)N4CCCC4)ncc3c(N)c2F)cnc2c1NCCO2` [Compound 745, N-(8-Amino-7-fluoro-6-(8-methyl-2,3-dihydro-1H-pyrido[2,3-b][1,4]oxazin-7-yl)isoquinolin-3-yl)pyrrolidine-1-carboxamide] was 0.29 nM.

Turning to `Cc1c(-c2cc3cc(NC(=O)OC4CC(O)C4)ncc3c(N)c2F)cnc2c1NC[C@H](C)C2` (stereo partly drawn) [Compound 560b, (1s,3s)-3-Hydroxycyclobutyl (8-amino-6-((R)-4,7-dimethyl-5,6,7,8-tetrahydro-1,5-naphthyridin-3-yl)-7-fluoroisoquinolin-3-yl)carbamate], the Ki was 0.32 nM. The same measure, in the same setting: the value for `Cc1c(-c2cc3cc(NC(=O)O[C@H]4CC[C@@H]4C)ncc3c(N)c2F)cnc2c1NCCO2` [Compound 559b, [(1S,2S)-2-methylcyclobutyl]N-[8-amino-7-fluoro-6-(8-methyl-2,3-dihydro-1H-pyrido[2,3-b][1,4]oxazin-7-yl)-3-isoquinolyl]carbamate] was 0.14 nM; that for `Cc1c(-c2cc3cc(NC(=O)O[C@H]4C[C@H]([C@H](C)O)C4)ncc3c(N)c2F)cnc2c1NCCO2` (single isomer, unassigned) [Compound 573b] was 0.019 nM. Take `Cc1c(-c2cc3cc(NC(=O)O[C@H]4CN(C)C[C@H]4F)ncc3c(N)c2F)cnc2c1NCCO2` [Compound 452c, (3S,4R)-4-Fluoro-1-methylpyrrolidin-3-yl (8-amino-7-fluoro-6-(8-methyl-2,3-dihydro-1H-pyrido[2,3-b][1,4]oxazin-7-yl)isoquinolin-3-yl)carbamate]: the Ki came out at 0.17 nM. For `Cc1c(-c2cc3cc(NC(=O)OC4CCS(=O)(=O)CC4)ncc3c(N)c2F)cnc2c1NCCC2` [Compound 579, 1,1-Dioxidotetrahydro-2H-thiopyran-4-yl (8-amino-7-fluoro-6-(4-methyl-5,6,7,8-tetrahydro-1,5-naphthyridin-3-yl)isoquinolin-3-yl)carbamate], the Ki worked out at 0.85 nM. With `CO[C@H]1CCC[C@H]1NC(=O)Nc1cc2cc(-c3cnc4c(c3C)NCCO4)c(F)c(N)c2cn1` (single isomer, unassigned) [Compound 729b], the Ki was 0.015 nM. For the compound `Cc1c(-c2cc3cc(NC(=O)O[C@H]4C[C@@H](O)C4)ncc3c(N)c2F)cnc2c1NCCO2` [Compound 485a, (1s,3s)-3-Hydroxycyclobutyl (8-amino-7-fluoro-6-(8-methyl-2,3-dihydro-1H-pyrido[2,3-b][1,4]oxazin-7-yl)isoquinolin-3-yl)carbamate], the Ki was less than 0.013 nM. On to `Cc1c(-c2cc3cc(NC(=O)OC4CC5(CCN(C6COC6)CC5)C4)ncc3c(N)c2F)cnc2c1NCCC2` [Compound 430, 7-(Oxetan-3-yl)-7-azaspiro[3.5]nonan-2-yl (8-amino-7-fluoro-6-(4-methyl-5,6,7,8-tetrahydro-1,5-naphthyridin-3-yl)isoquinolin-3-yl)carbamate], for which the Ki is less than 0.013 nM.

Turning to `Cc1c(-c2cc3cc(NC(=O)O[C@H]4COC[C@@H]4C)ncc3c(N)c2F)cnc2c1NC[C@@H](F)O2` (single isomer, unassigned) [Compound 567b], the Ki is 0.119 nM.

Turning to `Cc1c(-c2cc3cc(NC(=O)OC4CN(CCF)C4)ncc3c(N)c2F)cnc2c1NCCO2` [Compound 521, 1-(2-Fluoroethyl)azetidin-3-yl (8-amino-7-fluoro-6-(8-methyl-2,3-dihydro-1H-pyrido[2,3-b][1,4]oxazin-7-yl)isoquinolin-3-yl)carbamate], the Ki is 0.11 nM. Still for that read-out and setting: the value for `Cc1c(-c2cc3cc(NC(=O)N(C)C)ncc3c(N)c2F)cnc2c1NCCO2` [Compound 742, 3-(8-Amino-7-fluoro-6-(8-methyl-2,3-dihydro-1H-pyrido[2,3-b][1,4]oxazin-7-yl)isoquinolin-3-yl)-1,1-dimethylurea] was 1.12 nM; that for `Cc1c(-c2cc3cc(NC(=O)O[C@H]4[C@@H]5CN(S(C)(=O)=O)C[C@@H]54)ncc3c(N)c2F)cnc2c1NCCO2` [Compound 522a, (1R,5S,6s)-3-(Methylsulfonyl)-3-azabicyclo[3.1.0]hexan-6-yl (8-amino-7-fluoro-6-(8-methyl-2,3-dihydro-1H-pyrido[2,3-b][1,4]oxazin-7-yl)isoquinolin-3-yl)carbamate] was less than 0.013 nM.

Turning to `Cc1c(-c2cc3cc(NC(=O)O[C@H]4C[C@@H]([C@H](C)O)C4)ncc3c(N)c2F)cnc2c1NCCO2` (single isomer, unassigned) [Compound 573a], the Ki came out at 0.015 nM. The same measure, in the same setting: the value for `CC(=O)N1CC(OC(=O)Nc2cc3cc(-c4cnc5c(c4C)NCCO5)c(F)c(N)c3cn2)C1` [Compound 426, (1-Acetylazetidin-3-yl) N-[8-amino-7-fluoro-6-(8-methyl-2,3-dihydro-1H-pyrido[2,3-b][1,4]oxazin-7-yl)-3-isoquinolyl]carbamate] was less than 0.013 nM. Take `Cc1c(-c2cc3cc(NC(=O)O[C@H]4C[C@@H]([C@@H](C)O)C4)ncc3c(N)c2F)cnc2c1NCCO2` (single isomer, unassigned) [Compound 573d]: the Ki is less than 0.013 nM.

Still in this experiment, the particulars now being: HPK1 Ki, ATP 1 mM.
Regarding `Cc1c(-c2cc3cc(NC(=O)O[C@H]4CC[C@H]4O)ncc3c(N)c2F)cnc2c1NCCO2` [Compound 542a, (1S,2R)-2-Hydroxycyclobutyl (8-amino-7-fluoro-6-(8-methyl-2,3-dihydro-1H-pyrido[2,3-b][1,4]oxazin-7-yl)isoquinolin-3-yl)carbamate], the Ki was 0.33 nM.

For orientation: Ki means a dissociation constant, usually derived from enzyme kinetics or from competition with a known ligand.
